Experimental data taken from patent US8426358B2, “Methods for treating atherosclerosis” (Amgen Inc., priority 2006, dated 2013).
Numbering of substitutions follows the chain as printed.

Assays:
LCAT enzyme = biological target: T1, LCAT enzyme (Mus musculus, UniProt P16301); experiment: Plasma LCAT activity after IP dosing of BALB/c mice; type: in vivo; conditions: male, DEPG vehicle, FIG. 3
T1 construct: from tissue; host or cells: plasma of BALB/c mice dosed IP
T1 sequence (P16301 25-438): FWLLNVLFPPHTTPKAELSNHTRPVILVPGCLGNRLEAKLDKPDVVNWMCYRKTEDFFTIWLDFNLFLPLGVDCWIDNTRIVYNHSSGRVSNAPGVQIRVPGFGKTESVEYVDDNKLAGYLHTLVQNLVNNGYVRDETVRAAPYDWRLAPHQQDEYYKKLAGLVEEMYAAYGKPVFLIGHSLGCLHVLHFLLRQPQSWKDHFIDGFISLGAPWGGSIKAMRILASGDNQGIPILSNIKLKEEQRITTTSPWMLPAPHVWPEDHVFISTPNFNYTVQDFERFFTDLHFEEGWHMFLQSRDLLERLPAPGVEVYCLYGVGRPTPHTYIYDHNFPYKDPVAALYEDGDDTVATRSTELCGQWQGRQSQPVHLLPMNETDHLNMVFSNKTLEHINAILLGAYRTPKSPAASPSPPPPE
Experimental: (§1) Activity of the modified LCAT of the invention and activities of compounds of the invention were determined by measuring change of the rate of conversion of ^3H-labeled cholesterol to cholesteryl ester (CE). In the plasma LCAT activity assay, human plasma samples were equilibrated with a trace amount of radiolabeled cholesterol at 4° C. and the rate of cholesterol esterification was measured by TLC analysis after incubation at 37° C. (Dobiasova, supra). EC50 represents a compound concentration achieving 50% of maximal activation of LCAT-mediated cholesterol esterification.
(§2) Rodents used for assessing the in vivo effects of the compounds of the invention include BALB/c mice, CD1 mice, and Syrian hamsters of wild type fed with normal chew. These animals were treated with either vehicle or Compound A (3-(5-ethylthio)-1,3,4-thiadiazol-2-ylthio)pyrazine-2-carbonitrile) by IP injection. At time points (see Figures) after compound administration, blood samples were collected, plasma was immediately separated, and plasma levels of lipids, lipoprotein and LCAT activity were determined.
Briefly, BALB/c mice (male, 7 weeks old) were treated with either vehicle or Compound A by intra-peritoneal (IP) in the indicated doses. Animals were fed normal chow diet. […]

[1] = HDL particle size profiles by Gradient Gel Electrophoresis (GGE) of pooled hamster plasma; type: in vivo; conditions: hamsters, 20 mg/kg/day, 4 days
Experimental: Hamsters were treated with either vehicle or Compound A as described above (20 mg/kg/day, 4 days, n=6). Plasma samples were collected and pooled for each group. An aliquot of pooled plasma was analyzed using GGE as described in Blanche et al. (1981) BBA 665: 408-419.

LCAT C184A mutant = biological target: T2, LCAT C184A mutant (Homo sapiens, UniProt P04180, C208A); experiment: Activation of recombinant LCAT C184A mutant; type: biochemical; conditions: recombinant protein
T2 construct: full-length human LCAT cDNA was isolated from normal human liver cDNA library; FLAG (C); His (C); made in house; host or cells: CHO cells, secreted into serum-free medium
T2 sequence (P04180 25-440 C208A): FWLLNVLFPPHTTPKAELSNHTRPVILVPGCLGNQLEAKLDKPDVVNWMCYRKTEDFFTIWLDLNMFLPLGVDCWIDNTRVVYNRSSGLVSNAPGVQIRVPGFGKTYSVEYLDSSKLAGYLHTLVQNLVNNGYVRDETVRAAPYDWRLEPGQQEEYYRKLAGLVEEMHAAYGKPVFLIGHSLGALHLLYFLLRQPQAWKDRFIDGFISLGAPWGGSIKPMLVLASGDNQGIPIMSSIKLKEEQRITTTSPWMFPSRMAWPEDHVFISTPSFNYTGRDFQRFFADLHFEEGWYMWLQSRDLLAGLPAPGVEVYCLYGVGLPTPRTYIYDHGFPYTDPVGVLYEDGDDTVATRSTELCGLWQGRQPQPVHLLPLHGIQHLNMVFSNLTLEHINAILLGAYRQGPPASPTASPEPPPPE
From the text: (§3) For measuring compound activity using apoAI-liposome assay format, full-length human LCAT cDNA was isolated from normal human liver cDNA library (BioChain, Hayward, Calif.) with standard protocol and cloned into a pCMV-Flag vector (See Example 18). Recombinant LCAT was expressed in CHO cells and the enzyme secreted from stably transfected cells was harvested in serum-free culture medium. Recombinant LCAT identity was confirmed with anti-human LCAT and anti-Flag antibodies. The activity of recombinant LCAT enzyme was determined using apoAI-liposome substrates prepared by the standard cholate-dialysis procedure (Chen et al. (1982) J. Lipid Res. 23: 680-691. The initial mixture contained egg PC/^3H-unesterfied cholesterol/human apoAI (molar ratio of 250:12.5:0.8). After dialysis the proteoliposomes were incorporated with recombinant LCAT protein. LCAT activity was determined by measuring the conversion of radiolabeled cholesterol to cholesteryl ester and expressed in nmol CE/mL per hour.
(§4) Results summarized in FIG. 2(B) illustrate the mechanism of action of compounds of the invention on LCAT enzyme. Two loss-of-function LCAT mutants, H377A and S181A were generated, in which the critical catalytic triad of the enzyme was destroyed as described in Francone et al. (1991) Biochemistry 30: 10074-77; Peelman et al. (1998) Protein Sci. 7: 587-599; and Peelman et al. (2000) Curr. Opin. Lipidol. […]

LCAT mutant S181A = biological target: T3, LCAT mutant S181A (Homo sapiens, UniProt P04180, S205A); experiment: Activity of loss-of-function LCAT mutant S181A with or without compound; type: biochemical; conditions: nonfunctional enzyme
T3 construct: full-length human LCAT cDNA was isolated from normal human liver cDNA library; FLAG (C); His (C); made in house; host or cells: CHO cells, secreted into serum-free medium
T3 sequence (P04180 25-440 S205A): T2 sequence (P04180 25-440 C208A) with S181A, A184C
From the text: as §3, §4

LCAT = experiment: Plasma LCAT activity assay in LCAT-deficient (lcat -/-) plasma samples; type: biochemical; conditions: lcat -/- mutant mouse plasma, in the presence or absence of compound
Experimental: as §1, with “esterification. Results presented in FIG. 2(A) confirm activity and specificity of the compounds of the invention on LCAT enzyme. This experiment studied the effect of Compound A in LCAT-deficient plasma samples obtained from lcat mutant mice. Ng et al. (1997) J. Biol. Chem. 272:1 5777-81.” for “esterification.”

[2] = Plasma HDL cholesterol in CD1 mice after IP dosing; type: in vivo; conditions: IP 20 mg/kg, one dose per day, 4 days, FIG. 4
Experimental: as §2
CD1 male three month old mice were treated with either vehicle (control) or with Compound A by IP injection (20 mg/kg, one dose per day, 4 days, n=8). Plasma samples were collected and HDL cholesterol concentrations were determined standard reagents and assay protocol using clinical analyzer (Infinity).

LCAT mutant H377A = biological target: T4, LCAT mutant H377A (Homo sapiens, UniProt P04180, H401A); experiment: Activity of loss-of-function LCAT mutant H377A with or without compound; type: biochemical; conditions: nonfunctional enzyme
T4 construct: full-length human LCAT cDNA was isolated from normal human liver cDNA library; FLAG (C); His (C); made in house; host or cells: CHO cells, secreted into serum-free medium
T4 sequence (P04180 25-440 H401A): T2 sequence (P04180 25-440 C208A) with A184C, H377A
From the text: as §3, §4

[3] = FPLC elution profiles of pooled hamster plasma (cholesterol, triglyceride); type: in vivo; conditions: hamsters, IP 20 mg/kg/day, 4 days, FIG. 7
Experimental: Hamsters (n=6) were treated with either vehicle (control), or Compound A via IP administration (20 mg/kg/day, 4 days). Plasma samples were pooled within each treatment group, and separated by FPLC using two serially connected Superose 6 columns (Pharmacia Biotech Inc.). Cholesterol (panel A) and triglyceride (panel B) levels were determined in 0.5 ml fractions.

LCAT C31A mutant = biological target: T5, LCAT C31A mutant (Homo sapiens, UniProt P04180, C55A); experiment: Activation of recombinant LCAT C31A mutant; type: biochemical; conditions: recombinant protein
T5 construct: full-length human LCAT cDNA was isolated from normal human liver cDNA library; FLAG (C); His (C); made in house; host or cells: CHO cells, secreted into serum-free medium
T5 sequence (P04180 25-440 C55A): T2 sequence (P04180 25-440 C208A) with C31A, A184C
From the text: as §3, §4

[4] = Plasma TC, HDL and LpB cholesterol in Syrian hamsters after IP dosing; type: in vivo; conditions: IP 20 mg/kg, one dose per day, 4 days, FIG. 6
Experimental: as §2
Hamsters (Syrian, male, 12 weeks old, n=6 per group) were treated with either vehicle (control) or Compound A via IP administration (20 mg/kg, one dose per day, 4 days). Plasma samples were collected and concentrations of total cholesterol (TC), panel B, and HDL cholesterol (panel A) were measured. LpB cholesterol contents were obtained by subtracting HDL from TC (panel C).

In the case of `CCSc1nnc(Sc2nccnc2C#N)s1` [Compound A], the “Plasma LCAT enzyme activity” value (LCAT enzyme) is reported as “increase LCAT enzyme activity in a dose dependent manner”, the “HDL particle size (GGE)” value [1] is reported as “increase of HDL particle size” and the “HDL particle size profile, HDL subclass 2a” value ([1]; GGE) is reported as 39. For the same compound, the “HDL particle size profile, HDL subclass 2b” value ([1]; GGE) was 56, the “HDL particle size profile, HDL subclass 3a” value ([1]; GGE) was 3 and the “HDL particle size profile, HDL subclass 3b” value ([1]; GGE) was 1. For the same compound, the “HDL particle size profile, HDL subclass 3c” value ([1]; GGE) was 1, the “Response of C184A mutant to compound (LCAT activation)” value (LCAT C184A mutant) was “able to respond to the treatment in a dose dependent manner comparable to that of the wild type enzyme” and the “LCAT activity of S181A mutant” value (LCAT mutant S181A) was “No activity was observed”. The “LCAT activity in LCAT-deficient plasma” value (LCAT) was “No LCAT activity was detected”, the HDL cholesterol levels [2] was “increases HDL cholesterol levels” and the “LCAT activity of H377A mutant” value (LCAT mutant H377A) was “No activity was observed”. The “HDL particle size (FPLC)” value [3] was “increases HDL particle size”, the “HDL-Ch levels (FPLC)” value [3] was “increases HDL-Ch levels” and the “TG levels in the VLDL fraction (FPLC)” value [3] was “decrease TG levels in the VLDL fraction”. The “Response of C31A mutant to compound (LCAT activation)” value (LCAT C31A mutant) was “failed to be activated”, the HDL levels [4] was “increases HDL levels” and the “apoB-containing lipoprotein (LpB cholesterol = TC minus HDL)” value [4] was “decreases apoB-containing lipoprotein”.
